Literature values as cited in patent publication US20160361293A1, “NANOSTRUCTURED COMPOSITION COMPRISING INDOMETHACINE, ITS PHARMACEUTICALLY ACCEPTABLE SALTS AND CO-CRYSTALS AND PROCESS FOR THE PREPARATION THEREOF” (DARHOLDING KFT., priority 2014, published 2016).
≈ marks a conversion by molar mass, not a printed value.

Assays:
[1] = in vivo
[2] = not given; remark: listed apart in the source

mean half-life [1]: about 4.5 hours | stability in neutral or slightly acidic media (neutral or slightly acidic media): stable | stability in strong alkali (strong alkali): decomposes | solubility in alcohol ([2]; alcohol, in words): sparingly soluble | water solubility ([2]; water): 0.05 mg/mL (≈ 140 µM) | solubility in water ([2]; water, in words): practically insoluble
Structure (SMILES): COc1ccc2c(c1)c(CC(=O)O)c(C)n2C(=O)c1ccc(Cl)cc1 [Indomethacin, 1-(4-chlorobenzoyl)-5-methoxy-2-methyl-1H-indole-3-acetic acid]
